Measured values from patent US20260306599A1, “TIMP3-DERIVED TEIPP NEOANTIGENS AND USES THEREOF” (priority 2023, published 2026).
Residues, ends and D or L forms follow the SMILES beside them. No end group written: not given here.

Key:
[1] = system: p124-specific CD8 T cells; experiment: Cross-presentation of synthetic long peptides by monocyte-derived dendritic cells to p124-specific CD8 T cells; type: cell-based, human; settings: moDC loaded with 10 μM SLP; for T cell activation by cross-presented synthetic long peptide (wild type epitope): FIG. 7; for cross-presentation of synthetic long peptide (V-variant epitope): FIG. 8
Procedure: HLA-A*02:01 positive PBMCs were isolated from buffy-coats from consented donors (Sanquin bloodbank, Amsterdam), using a gradient ficoll layer. PBMCs were incubated with anti-CD14 magnetic beads for 20 min at 4° C. and the CD14 positive monocytes were isolated using magnetic separation columns (miltenyi). CD14+ monocyte were cultured in RPMI medium supplemented with 10% FCS, GM-CSF (800 units/ml), and IL-4 (500 units/ml) for 6 days to generate immature monocyte-derived dendritic cells. On day 6, the immature moDCs were incubated with synthetic long peptide (10 μM, Genscript) for 2h, followed by overnight incubation with LPS (20 ng/ml). Matured and loaded moDCs (30,000 cells) were washed and co-cultured with previously established tetramer positive T cells (50,000 cells) for 16 h. Direct presentation of synthetic long peptides was tested by continuous incubation with TIMP3-specific CD8 T cell bulk for 16 h in the absence of moDC. Cytokine release by T cells was then measured in supernatants by ELISA.
The synthetic long peptide (SLP) platform is highly immunogenic and successfully applied in therapeutic SLP vaccination for HPV-induced cancers (Kenter et al. 2009; van Poelgeest et al. 2016). Therefore, the inventors examined the efficiency of cross-presentation of long versions of the TIMP3-derived signal peptide SLGDWGAEA (SEQ ID NO: 2) in dendritic cells, using natural flanking amino acids extending the amino-terminus, the carboxy-terminus, or both ends (Table 3). Monocyte-derived dendritic cells (moDC) were incubated with these three SLPs (P124 long 1-3; SEQ ID NOs: 22-24), then matured, and used as targets for the p124-specific CD8 T cell culture to assess correct processing and HLA-A2 presentation of the minimal TEIPP epitope. Despite the fact that the c-terminus was an alanine, the TIMP3-derived signal peptide SLGDWGAEA (SEQ ID NO: 2) was cross-presented by DCs from a longer peptide to p124-specific CD8 T cells (FIG. 7).
Therefore, the cross-presentation of the V-variant was evaluated as synthetic long peptide extended with natural flanking amino acids (Table 3). After uptake and processing of the five different variants (P124 long V1-3, V1-4, V1-6, V2 and V3; SEQ ID NOs: 25, 110, 111, 26 and 27), moDCs were co-cultured with the p124-specific T cell cultures and cytokine production was measured (FIG. 8). […] The lack of recognition of DCs not loaded with peptide reiterates that moDCs, despite the high expression of TIMP3 (FIG. 4), are not recognized.

[2] = system: TAP-negative tumor cells; experiment: Preferential recognition of TAP-negative over TAP-positive tumor cells by peptide-stimulated T cell cultures (TEIPP screen); type: cell-based, human; settings: TAP-negative vs TAP-positive tumor cells
Procedure: TCR-transduced or bulk-cultured TEIPP T cells were tested for their ability to selectively recognize the indicated TEIPP epitope presented on TAP impaired tumors by co-culturing them for 18 hours with wild-type (wt), TAP-KO and/or TAP/TIMP3-KO tumor cells at a 5-to-1 target-to-T cell ratio, after which supernatants were harvested and analyzed for cytokine production by GM-CSF, CCL4 and/or IFNg ELISA. Unstimulated and peptide-stimulated T cells were used as negative and positive controls. For some experiments, also endogenous TEIPP antigen-expressing healthy cells such as Epstein-Barr virus (EBV) transformed B-cells, monocytes or monocyte-derived dendritic cells were included as additional controls. Test were performed in triplo in 96 well round bottom plates at 1:1 target to effector ratio.
36 peptides (designated 101 to 136) were selected for their capacity to activate CD8+ T cells present in peripheral blood mononuclear cells (PBMC) of maximal 5 healthy donors, following the protocol described earlier (Marnjt et al., 2018). […] After an in vitro expansion and enrichment of the responding T cell cultures, 18 of the 21 cases could be tested for their capacity to preferentially recognize TAP-negative tumor cells over TAP-positive tumor cells. […] These cultures were stimulated with peptide 105, 113, or 124. […]

[3] = system: SLGDWGAEA-specific T cells; experiment: Interferon-gamma production of SLGDWGAEA-specific T cells stimulated with variant peptides pulsed on HLA-A*0201 positive EBV transformed B-cells; type: cell-based, human; settings: for Recognition (IC50): concentration of peptide for half maximal interferon-gamma production of SLGDWGAEA-specific T cells; for response of peptide 124-specific CD8+ T cell culture to variant peptide: short minimal peptides exogenously pulsed on HLA-A*0201 positive EBV transformed B-cells
Description: The inventors investigated if exchanges into another amino acids would result in a more efficiently processed epitope. First, they examined whether these substitutions would interfere with T cell receptor interaction. The inventors exogenously pulsed the short minimal peptides of Table 4 with the C-terminal valine (V), leucine (L), isoleucine (I), or methionine (M) on HLA-A*0201 positive EBV transformed B-cells and measured the activation of the peptide 124-specific CD8+ T cell culture.

[4] = system: CD8+ T cells present in peripheral blood mononuclear cells (PBMC); experiment: In vitro expansion of peptide multimer-positive CD8+ T cells from PBMC of healthy donors; type: cell-based, human
Procedure: Buffy coats from healthy donors were obtained from Sanquin (Sanquin blood facility). Informed consent was given in writing by all participants. PBMCs were isolated using a ficoll gradient (density 1.077 g/ml). Approximately 500×10^6 PBMCs were incubated with PE-labeled pHLA-A*02:01 tetramers (Flex-T™ HLA-A*02:01 Monomer UVX van Biolegend) for 30 min at RT. Anti-PE magnetic beads (MACS) were used to pull out pHLA-A*02:01 tetramer-positive cells over a MACS LS column as instructed by the manufacturer (Miltenyi Biotech). T cells were cultured in complete IMDM containing 10% human serum (Sanquin blood facility) and 100 U/ml IL-2 (Proleukine; Novartis). Bulk T cells were stimulated every 2 weeks with a mixture of T cells (106), 1 μg/ml synthetic peptide (SLGDWGAEA (SEQ ID NO: 2) (TIMP3)), irradiated PBMCs (10 cells, 50 Gray), and EBV-JY (10W cells, 75 Gray) in complete T cell culture medium supplemented with 100 U/ml IL-2 in 24-well plates (Costar). Culture medium was replenished every 2-3 d with fresh complete T cell medium.
36 peptides (designated 101 to 136) were selected for their capacity to activate CD8+ T cells present in peripheral blood mononuclear cells (PBMC) of maximal 5 healthy donors, following the protocol described earlier (Marnjt et al., 2018). […]

[5] = system: SLGDWGAEA-specific T cell cultures; experiment: Tetramer staining of peptide 124-specific T cell cultures; type: binding, human; settings: three T cell cultures, donors 2028, 4409, 2752
Description: T cell cultures of donors 2028, 4409 and 2752 were stimulated with the peptide SLGDWGAEA (SEQ ID NO:2) and analyzed via flow cytometry for the percentage of CD8+ T cells and the percentage therein of CD8+ T cells that stained positive with the HLA-A*02:01 tetramer presenting peptide SLGDWGAEA. All three SLGDWGAEA-specific T cell cultures comprise more than 97% CD8+ T cells that stained for more than 99% positive with SLGDVGAEA-loaded HLA-A*02:01 tetramers (indicated by HLA-A*02:01: SLGDWGAEA™ in FIG. 1). These SLGDWGAEA-specific T cells were used in subsequent experiments described below. In the present application and figures, peptide SLGDWGAEA is also referred to as ‘peptide 124’ or ‘p124’.
Buffy coats from healthy donors were obtained from Sanquin (Sanquin blood facility). Informed consent was given in writing by all participants. PBMCs were isolated using a ficoll gradient (density 1.077 g/ml). Approximately 500×10^6 PBMCs were incubated with PE-labeled pHLA-A*02:01 tetramers (Flex-T™ HLA-A*02:01 Monomer UVX van Biolegend) for 30 min at RT. Anti-PE magnetic beads (MACS) were used to pull out pHLA-A*02:01 tetramer-positive cells over a MACS LS column as instructed by the manufacturer (Miltenyi Biotech). T cells were cultured in complete IMDM containing 10% human serum (Sanquin blood facility) and 100 U/ml IL-2 (Proleukine; Novartis). […]

[6] = system: p124-specific CD8 T cells; experiment: Stimulation of p124-specific T cells by exogenous short p124 peptide; type: cell-based, human; settings: FIG. 7
Procedure: The peptide 124-specific T-cell culture from donor 4409 was stimulated with HLA-A*0201 matched monocyte-derived dendritic cells (MoDCs) from three different donors (indicated by MoDCs 0559, MoDC 4553 and MoDC 7401), which were loaded with (10 uM for 20-24h) the indicated synthetic long peptides (SLP) (“p124 long 1” (SEQ ID NO: 22), (“p124 long 2” (SEQ ID NO: 23), (“p124 long 3” (SEQ ID NO: 24)) or with no peptide as background control. The T cell culture incubated with 25 ug/ml the p124-peptide SLGDWGAEA served as positive control for reactivity (indicated by “T cells+p124”). The amount of interferon-gamma (IFNy) or GM-CSF produced is shown on the y-axis in pg/ml.
The synthetic long peptide (SLP) platform is highly immunogenic and successfully applied in therapeutic SLP vaccination for HPV-induced cancers (Kenter et al. 2009; van Poelgeest et al. 2016). Therefore, the inventors examined the efficiency of cross-presentation of long versions of the TIMP3-derived signal peptide SLGDWGAEA (SEQ ID NO: 2) in dendritic cells, using natural flanking amino acids extending the amino-terminus, the carboxy-terminus, or both ends (Table 3). […]

## CC[C@H](C)[C@H](N)C(=O)N[C@H](C(=O)N[C@@H](CC(C)C)C(=O)N[C@@H](CC(C)C)C(=O)NCC(=O)N[C@@H](CO)C(=O)N[C@@H](Cc1c[nH]c2ccccc12)C(=O)N[C@@H](CO)C(=O)N[C@@H](CC(C)C)C(=O)NCC(=O)N[C@@H](CC(=O)O)C(=O)N[C@@H](Cc1c[nH]c2ccccc12)C(=O)NCC(=O)N[C@@H](C)C(=O)N[C@@H](CCC(=O)O)C(=O)N[C@@H](C)C(=O)N[C@@H](CS)C(=O)N[C@H](C(=O)N[C@@H](CS)C(=O)N[C@@H](CO)C(=O)N1CCC[C@H]1C(=O)N[C@@H](CO)C(=O)N[C@@H](Cc1c[nH]cn1)C(=O)O)[C@@H](C)O)C(C)C [P124 long 2] (H-IVLLGSWSLGDWGAEACTCSPSH-OH)
[1]
  T cell activation by cross-presented synthetic long peptide (wild type epitope): the T cells were activated

## CC(C)C[C@H](NC(=O)[C@@H](N)CO)C(=O)NCC(=O)N[C@@H](CC(=O)O)C(=O)N[C@@H](Cc1c[nH]c2ccccc12)C(=O)NCC(=O)N[C@@H](C)C(=O)N[C@@H](CCC(=O)O)C(=O)N[C@@H](C)C(=O)N[C@@H](CS)C(=O)N[C@H](C(=O)N[C@@H](CS)C(=O)N[C@@H](CO)C(=O)N1CCC[C@H]1C(=O)N[C@@H](CO)C(=O)N[C@@H](Cc1c[nH]cn1)C(=O)N1CCC[C@H]1C(=O)N[C@@H](CCC(N)=O)C(=O)N[C@@H](CC(=O)O)C(=O)N[C@@H](C)C(=O)N[C@@H](Cc1ccccc1)C(=O)N[C@@H](CS)C(=O)N[C@@H](CC(N)=O)C(=O)O)[C@@H](C)O [P124 long 3] (H-SLGDWGAEACTCSPSHPQDAFCN-OH)
[1]
  T cell activation by cross-presented synthetic long peptide (wild type epitope): No recognition was observed

## CC[C@H](C)[C@H](N)C(=O)N[C@H](C(=O)N[C@@H](CC(C)C)C(=O)N[C@@H](CC(C)C)C(=O)NCC(=O)N[C@@H](CO)C(=O)N[C@@H](Cc1c[nH]c2ccccc12)C(=O)N[C@@H](CO)C(=O)N[C@@H](CC(C)C)C(=O)NCC(=O)N[C@@H](CC(=O)O)C(=O)N[C@@H](Cc1c[nH]c2ccccc12)C(=O)NCC(=O)N[C@@H](C)C(=O)N[C@@H](CCC(=O)O)C(=O)N[C@H](C(=O)N[C@@H](CS)C(=O)N[C@H](C(=O)N[C@@H](CS)C(=O)N[C@@H](CO)C(=O)N1CCC[C@H]1C(=O)N[C@@H](CO)C(=O)N[C@@H](Cc1c[nH]cn1)C(=O)O)[C@@H](C)O)C(C)C)C(C)C [P124 long V2] (H-IVLLGSWSLGDWGAEVCTCSPSH-OH)
[1]
  cross-presentation of synthetic long peptide (V-variant epitope): cross-presentation was lost

## FLGPWPAAS [peptide 105, FLGPWPAAS, reference compound]
[2]
  recognition pattern of the stimulated T cell culture (classified as TEIPP): consistent recognition pattern

## LGLIVLLGSWSLGDWGAEV [P124 long V1-4, LGLIVLLGSWSLGDWGAEV]
[1]
  cross-presentation of synthetic long peptide (V-variant epitope): enhanced T cell stimulation and more efficient cross-presentation

## LIVLLGSWSLGDWGAEV [P124 long V1-6, LIVLLGSWSLGDWGAEV]
[1]
  cross-presentation of synthetic long peptide (V-variant epitope): enhanced T cell stimulation and more efficient cross-presentation

## MTPWLGLIVLLGSWSLGDWGAEA [P124 long 1]
[1]
  T cell activation by cross-presented synthetic long peptide (wild type epitope): the T cells were activated

## SLGDWGAEA [SLGDWGAEA]
[3]; Table 1
  Recognition (IC50): 0.092525 µg/mL
[3]; Table 4
  Recognition (IC50): 0.092525 µg/mL
[4]
  donors with outgrowth of p124-specific T cells: 10 donors
[2]
  recognition pattern of the stimulated T cell culture (classified as TEIPP): consistent recognition pattern
[5]
  CD8+ T cells stained positive with SLGDWGAEA-loaded HLA-A*02:01 tetramers: more than 99%
[5]; listed as peptide 124
  CD8+ T cells stained positive with SLGDWGAEA-loaded HLA-A*02:01 tetramers: > 99%
[6]
  T cell stimulation by exogenous pulsing of short peptide: stimulated the T cells

## SLGDWGAEI [SLGDWGAEI]
[3]; Table 1
  Recognition (IC50): 0.284929 µg/mL
[3]; Table 4
  Recognition (IC50): 0.284929 µg/mL

## SLGDWGAEL [SLGDWGAEL]
[3]
  response of peptide 124-specific CD8+ T cell culture to variant peptide: No response was observed

## SLGDWGAEM [SLGDWGAEM]
[3]
  response of peptide 124-specific CD8+ T cell culture to variant peptide: No response was observed

## SLGDWGAEV [SLGDWGAEV]
[3]; Table 1
  Recognition (IC50): 0.001471 µg/mL
[3]; Table 4
  Recognition (IC50): 0.001471 µg/mL
[3]; specifically at the lower peptide concentration range
  improvement of the stimulation of p124-specific T cells vs. c-terminal alanine peptide: 61 fold

## WLGLIVLLGSWSLGDWGAEV [P124 long V1-3]
[1]
  cross-presentation of synthetic long peptide (V-variant epitope): less optimal
